± gives the standard deviation of the reports.
SMILES	glass transition temperature
*C(=O)c1ccc2c(c1)C(=O)N(c1ccc(-c3cc(C(C)(C)C)c(Oc4ccc(N5C(=O)c6ccc(*)cc6C5=O)cc4)c(C(C)(C)C)c3)cc1)C2=O (repeat unit)	347.50 °C
*CCC(C)(C)CC(C)COC(=O)CCCCC(=O)O* (repeat unit)	-70.00 °C
*c1ccc(Oc2ccc(-n3c(=O)c4cc5c(=O)n(*)c(=O)c5cc4c3=O)cc2-c2ccccc2)cc1 (repeat unit)	329.00 °C
*Oc1ccc(NC(=O)c2ccc(Oc3ccc(C(C)(C)c4cccc(C(C)(C)c5ccc(Oc6ccc(C(=O)Nc7ccc(*)cc7)cc6)cc5)c4)cc3)cc2)cc1 (repeat unit)	155.00 °C
*OC(=O)Cc1ccc(CC(*)=O)cc1 (repeat unit)	65.00 °C
*c1ccc(-c2cc(-c3ccc(OCCCC#N)cc3)cc(-c3ccc(-n4c(=O)c5cc6c(=O)n(*)c(=O)c6cc5c4=O)cc3)n2)cc1 (repeat unit)	345.00 °C
*CCCCCC(=O)Oc1ccc2ccc(OC(=O)CCCCCn3c(=O)c4cc5c(=O)n(*)c(=O)c5cc4c3=O)cc2c1 (repeat unit)	98.00 °C
*c1cccc(N2C(=O)C(=O)N(c3ccc(Cc4ccc(N5C(=O)C(=O)N(*)C5=O)cc4)cc3)C2=O)n1 (repeat unit)	237.00 °C
*O[Si](C)(C)O[Si](C)(C)c1ccc([Si](*)(C)C)cc1 (repeat unit)	-62.50 °C
*CCCCCCCCCCN1C(=O)c2ccc(C(c3ccc4c(c3)C(=O)N(*)C4=O)(C(F)(F)F)C(F)(F)F)cc2C1=O (repeat unit)	123.00 °C
*c1ccc(-c2nc3cc(Oc4ccc(NC(=O)CN5C(=O)c6ccc(C(c7ccc8c(c7)C(=O)N(CC(=O)Nc7ccc(Oc9ccc%10nc(-c%11ccccc%11)c(-c%11ccc(N%12C(=O)c%13ccc%14c%15c(ccc(c%13%15)C%12=O)C(=O)N(*)C%14=O)cc%11)nc%10c9)cc7)C8=O)(C(F)(F)F)C(F)(F)F)cc6C5=O)cc4)ccc3nc2-c2ccccc2)cc1 (repeat unit)	306.00 °C
*CCOC(=O)CCCCC(=O)OCCOC(=O)c1ccc(C(=O)O*)cc1 (repeat unit)	8.00 °C
*c1ccc(Cc2ccc(N3C(=O)c4ccc(Sc5ccc6c(c5)C(=O)N(*)C6=O)cc4C3=O)cc2)cc1 (repeat unit)	265.00 °C
*CC(*)c1ccccc1C(=O)OC (repeat unit)	130.00 °C
*c1ccc2cc(-c3nc4ccc(-c5ccc6nc(*)[nH]c6c5)cc4[nH]3)ccc2c1 (repeat unit)	403.00 °C
*CCC(C)O* (repeat unit)	-50.00 °C
*CCOC(=O)c1cccc(C(=O)O*)c1 (repeat unit)	58.00 °C
*/C=C/C1CC(*)C(C#N)(CCCC)C1 (repeat unit)	87.00 °C
*CCCCCCCCc1nc2cc(-c3ccc4[nH]c(*)nc4c3)ccc2[nH]1 (repeat unit)	234.00 °C
*Oc1ccc(/N=C(\c2ccccc2)c2ccc(Oc3ccc(C(C)(C)c4ccc(Oc5ccc(/C(=N/c6ccc(*)cc6)c6ccccc6)cc5)cc4)cc3)cc2)cc1 (repeat unit)	155.00 °C
*C(=O)Oc1ccc(OC(=O)c2ccc3c(c2)C(=O)N(c2ccc(Oc4ccc(N5C(=O)c6ccc(*)cc6C5=O)cc4)cc2)C3=O)c(-c2ccccc2)c1 (repeat unit)	212.00 °C
*CC(*)C(=O)c1ccc(C)cc1 (repeat unit)	59.50 °C

SMILES	glass transition temperature
*Oc1ccc2ccc(Oc3ccc(C(=O)Nc4ccc(Oc5ccc(C(C)(C)c6ccc(C(C)(C)c7ccc(Oc8ccc(NC(=O)c9ccc(*)cc9)cc8)cc7)cc6)cc5)cc4)cc3)cc2c1 (repeat unit)	166.00 °C
*c1ccc(/C=N/c2ccc(C(c3ccccc3)c3ccc(/N=C/c4ccc(-c5ccc(*)s5)cc4)cc3)cc2)cc1 (repeat unit)	129.00 °C
*Oc1ccc(Sc2ccc(OC(=O)OC3C(C)(C)C(OC(*)=O)C3(C)C)cc2)cc1 (repeat unit)	107.00 °C
*CCc1cccc(*)c1 (repeat unit)	9.00 °C
*CC(*)(C)C(=O)OCCCCCCCCCCn1c2ccccc2c2cc(/C=C(\C#N)C(=O)OC)ccc21 (repeat unit)	58.00 °C
*c1ccc(-c2ccc(-c3ccc(-n4c(=O)c5c(C(F)(F)F)c6c(=O)n(*)c(=O)c6c(C(F)(F)F)c5c4=O)cc3)cc2)cc1 (repeat unit)	364.00 °C
*CC(*)c1ccc(OC(C)=O)cc1 (repeat unit) [poly(4-acetoxystyrene)]	121.42 ± 12 °C
*c1ccc(Sc2ccc(Sc3ccc(Sc4ccc(Sc5ccc(N6C(=O)c7ccc(Oc8ccc9c(c8)C(=O)N(*)C9=O)cc7C6=O)cc5)s4)s3)s2)cc1 (repeat unit)	158.50 °C
*Oc1ccc(C(=O)c2ccccc2)c(-c2cc(Oc3ccc(C(c4ccc(*)cc4)(C(F)(F)F)C(F)(F)F)cc3)ccc2C(=O)c2ccccc2)c1 (repeat unit)	164.00 °C
*CC(OC)C1(C)C(=O)OC(=O)C1(*)C (repeat unit)	260.00 °C
*CC(*)C(=O)c1ccc(OC)cc1 (repeat unit)	46.00 °C
*CC(*)(C)C(=O)OCCNC(C)(C)C (repeat unit)	41.00 °C
*O[Si](C)(C)c1ccc([Si](*)(C)C)c2ccccc12 (repeat unit)	60.00 °C
*/C=C/c1ccc2c(c1)Sc1cc(*)ccc1N2c1ccc(OCCCCCCCCCCCC)cc1 (repeat unit)	129.00 °C
*c1ccc(C(=O)OCCCCCCOc2ccc(/C=C3\CCC/C(=C\c4ccc(OCCCCCCOC(=O)c5ccc(-c6nnc(*)o6)cc5)cc4)C3=O)cc2)cc1 (repeat unit)	71.00 °C
*Oc1ccc(Oc2ccc(C(=O)Nc3ccc(Oc4ccc(S(=O)(=O)c5ccc(Oc6ccc(NC(=O)c7ccc(*)cc7)cc6)cc5)cc4)cc3)cc2)cc1 (repeat unit)	220.00 °C
*CC(CCCCCCOc1ccc(/N=N/c2ccc(C(F)(F)F)cc2)cc1)COC(=O)CCCCC(=O)O* (repeat unit)	44.00 °C
*Oc1c(Cl)cc(C(c2cc(Cl)c(OC(*)=O)c(Cl)c2)C2CC3CCC2C3)cc1Cl (repeat unit)	270.00 °C
*CC(CS(=O)(=O)CCCCC)O* (repeat unit)	39.00 °C
*CCOC(=O)c1ccc(C(=O)OCCOc2ccc(C(C)(C)c3ccc(O*)cc3)cc2)cc1 (repeat unit)	83.00 °C
*c1ccc2c(c1)C(=O)N(c1ccc(OCCN(CCOc3ccc(N4C(=O)c5ccc(C(*)(C(F)(F)F)C(F)(F)F)cc5C4=O)cc3)c3ccccc3)cc1)C2=O (repeat unit)	170.00 °C
*c1ccc(Oc2ccc(Oc3ccc(N4C(=O)c5cccc(Oc6c(C)cc(Cc7cc(C)c(Oc8cccc9c8C(=O)N(*)C9=O)c(C)c7)cc6C)c5C4=O)c(C)c3)cc2)cc1C (repeat unit)	238.00 °C

SMILES	glass transition temperature
*O[Si](*)(C)CCC(F)(F)F (repeat unit)	-69.00 °C
*c1ccc(-c2ccc(-n3c(=O)c4cc5c(=O)n(*)c(=O)c5cc4c3=O)cc2C)c(C)c1 (repeat unit)	369.2 ± 6.7 °C
*CCCCCCOC(=O)OCCCCCOC(=O)OCCCCCCOc1ccc(C(=O)c2ccc(O*)cc2)cc1 (repeat unit)	-0.20 °C
*CC(*)(C)C(=O)OCCCCCCOc1ccc(/N=N/c2ccc(OCCCC)cc2)cc1 (repeat unit)	79.00 °C
*NC(CCC(=O)OCC)C(*)=O (repeat unit)	0.00 °C
*c1ccc(Oc2ccc(S(=O)(=O)c3ccc(Oc4ccc(-c5nc(-c6ccccc6)[nH]c5*)cc4)cc3)cc2)cc1 (repeat unit)	277.00 °C
*CCc1ccc(*)c(Cl)c1 (repeat unit)	75.00 °C
*c1ccc(C)c(N2C(=O)c3ccc(S(=O)(=O)c4ccc5c(c4)C(=O)N(*)C5=O)cc3C2=O)c1 (repeat unit)	348.00 °C
*CC(*)C(=O)c1ccc(Br)cc1 (repeat unit)	101.50 °C
*Oc1ccc(NC(=O)Nc2ccccc2CCc2ccc(NC(=O)Nc3ccc(*)cc3)cc2)cc1 (repeat unit)	200.00 °C
*CCOC(=O)C1CCC(C(=O)OCCOc2ccc(C(C)(C)c3ccc(O*)cc3)cc2)CC1 (repeat unit)	57.00 °C
*c1ccc(Oc2ccc(-c3cccc(-c4ccc(Oc5ccc(-c6c7c(c(*)c8ccccc68)C(=O)N(c6ccccc6)C7=O)cc5)c(C(F)(F)F)c4)n3)cc2C(F)(F)F)cc1 (repeat unit)	298.00 °C
*NC1CCC(CCC2CCC(NC(=O)CCCCCCCCCCC(*)=O)CC2)CC1 (repeat unit)	105.00 °C
*C(=O)OCCCCCCCCCOC(=O)c1ccc(NC(=O)c2ccc(N3C(=O)c4ccc(*)cc4C3=O)cc2)cc1 (repeat unit)	100.00 °C
*Nc1cccc(C#Cc2ccc(NC(=O)c3cccc(C(*)=O)c3)cc2)c1 (repeat unit)	268.00 °C
*CC(CC)N(*)C(=O)CCCC (repeat unit)	52.00 °C
*CC(*)(C)C(=O)Nc1cccc(-c2nnc(-c3ccccc3)o2)c1 (repeat unit)	65.00 °C
*Oc1cccc(Oc2ccc(S(=O)(=O)c3ccc(*)cc3)cc2)c1 (repeat unit)	177.00 °C
*c1c(C)cc(C)c(N2C(=O)c3ccc(-c4ccc5c(c4)C(=O)N(*)C5=O)cc3C2=O)c1C (repeat unit)	385.00 °C
*c1ccc2oc3ccc(S(=O)(=O)c4ccc(Oc5ccc(S(*)(=O)=O)cc5)cc4)cc3c2c1 (repeat unit)	290.00 °C
*Oc1ccc(CC(NC(=O)CCc2ccc(OC(=O)CCC(*)=O)cc2)C(=O)OC(C)CC)cc1 (repeat unit)	75.00 °C
*Oc1ccc(NC(=O)c2ccc(Oc3ccc(C(C)(C)c4cccc(C(C)(C)c5ccc(Oc6ccc(C(=O)Nc7ccc(Oc8ccc(C(c9ccc(*)cc9)(C(F)(F)F)C(F)(F)F)cc8)cc7)cc6)cc5)c4)cc3)cc2)cc1 (repeat unit)	154.00 °C

Reference: the PolyMetriX glass transition set
